Converted amounts (≈) assume the structure as drawn.
How the values were obtained:
[1] = test system: Streptococcus sp.; test: In vitro antibacterial evaluation: minimum inhibitory concentration (MIC), broth dilution method; type: cell-based
Method in brief: (§1)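 Inoculum: 5×10^5 CFU/mL. Range: 64-0.06 μg/mL. Medium: Muller-Hinton II […]; NCCLS M7-A2 broth dilution. Endpoint: lowest concentration inhibiting growth. Strains include methicillin-, penicillin- and/or vancomycin-resistant clinical isolates.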

[2] = test system: Enterococcus sp.; test: as above; type: cell-based
Method in brief: as §1

[3] = test system: Escherichia coli; test: as above; type: cell-based
Method in brief: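 Values are minimum inhibitory concentrations, meaning the smallest antibiotic concentration that stops growth of the organism. They come from broth dilution in Muller-Hinton II […] per NCCLS guidance (M7-A2), using 5×10^5 CFU/mL and concentrations from 64 to 0.06 μg/mL.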

[4] = test system: Staphylococcus sp.; test: as above; type: cell-based; conditions: broth dilution, 18 hours at 35° C.
Method in brief: as §1

[5] = test system: Staphylococcus aureus-SMITH (GC 4543); test: Acute lethal infection in mice (ED50); type: in vivo; conditions: female CD-1 mice, intraperitoneal challenge, intravenous dose 30 min. after infection, 7 day survival ratios
Protocol: The therapeutic effects of glycopeptide antibiotics of Formula I are determined against acute lethal infections with S. aureus (strain Smith), a penicillin resistant strain of S. pneumoniae (strain GC 1894), and a vancomycin resistant strain of E. fecalis (strain GC 6189 and GC 2246). Female mice, CD-1 (Charles River Laboratories), 20 +1-2 gm, are challenged by intraperitoneal injection of sufficient bacteria (suspended in Trypticase Soy Broth or hog gastric mucin) to kill non-treated controls within 24-48 hr. Antibacterial agents, contained in 0.2 mL of saline or 5% dextrose solution, are administered intravenously 30 min. after infection. Five mice are treated at each dose level. The 7 day survival ratios from 3 separate tests are pooled for calculation of median effective dose (ED50).

SMILES: CC(c1ccccc1)C1NC(=O)CNC(=O)C(CO)NC(=O)C(CC2CN(Cc3ccccc3)C(=N)N2C2OC(CO)C(O)C(O)C2O)NC(=O)C(CC2CNC(=N)N2)NC(=O)C(Cc2ccc(OC3OC(CO)C(OC4OC5COC6(OC5C(O)C4O)C4CC5CC(C4)CC6C5)C(O)C3O)cc2)NC1=O (stereo not drawn) [Example 80, Cyclo[3-(2-iminoimidazolidin-4-yl)alanyl-3-(1-benzyl-3-hexopyranosyl-2-iminoimidazolidin-4-yl)alanylserylglycyl-β-methylphenylalanyl-O-[4-O-[4,6-O-(2-adamantylidene)hexopyranosyl]hexopyranosyl]tyrosyl]]
- MIC Streptococcus agalactiae (GC 4564) ([1]; Streptococcus agalactiae (GC 4564), broth dilution, 18 hours at 35° C.): 8 µg/mL (≈ 5.38 µM)
- MIC Streptococcus pneumoniae (ATCC 6301) ([1]; Streptococcus pneumoniae (ATCC 6301), broth dilution, 18 hours at 35° C.): 8 µg/mL (≈ 5.38 µM)
- MIC Streptococcus pneumoniae (GC 1894) ([1]; Streptococcus pneumoniae (GC 1894), broth dilution, 18 hours at 35° C.): 4 µg/mL (≈ 2.69 µM)
- MIC Streptococcus pneumoniae (GC 4565) ([1]; Streptococcus pneumoniae (GC 4565), broth dilution, 18 hours at 35° C.): 16 µg/mL (≈ 10.8 µM)
- MIC Streptococcus pyogenes (GC 4563) ([1]; Streptococcus pyogenes (GC 4563), broth dilution, 18 hours at 35° C.): 8 µg/mL (≈ 5.38 µM)
- MIC Streptococcus pneumoniae (ATCC 6301) ([1]; strain ATCC 6301): 8 µg/mL (≈ 5.38 µM)
- MIC Streptococcus pneumoniae (GC 1894) ([1]; strain GC 1894): 4 µg/mL (≈ 2.69 µM)
- MIC Streptococcus pyogenes (GC 4563) ([1]; strain GC 4563): 8 µg/mL (≈ 5.38 µM)
- MIC Streptococcus agalactiae (GC 4564) ([1]; strain GC 4564): 8 µg/mL (≈ 5.38 µM)
- MIC Streptococcus pneumoniae (GC 4565) ([1]; strain GC 4565): 16 µg/mL (≈ 10.8 µM)
- MIC Enterococcus faecalis (GC 2242) ([2]; Enterococcus faecalis (GC 2242), broth dilution, 18 hours at 35° C.): 32 µg/mL (≈ 21.5 µM)
- MIC Enterococcus faecalis (GC 2691) ([2]; Enterococcus faecalis (GC 2691), broth dilution, 18 hours at 35° C.): 64 µg/mL (≈ 43.1 µM)
- MIC Enterococcus faecalis (GC 3059) ([2]; Enterococcus faecalis (GC 3059), broth dilution, 18 hours at 35° C.): 64 µg/mL (≈ 43.1 µM)
- MIC Enterococcus faecalis (ATCC 29212) ([2]; strain ATCC 29212): 64 µg/mL (≈ 43.1 µM)
- MIC Enterococcus faecalis (GC 2242) ([2]; strain GC 2242): 32 µg/mL (≈ 21.5 µM)
- MIC Enterococcus faecium (GC 2243) ([2]; strain GC 2243): 32 µg/mL (≈ 21.5 µM)
- MIC Enterococcus faecalis (GC 2691) ([2]; strain GC 2691): 64 µg/mL (≈ 43.1 µM)
- MIC Enterococcus faecalis (GC 3059) ([2]; strain GC 3059): 64 µg/mL (≈ 43.1 µM)
- MIC Enterococcus faecalis (GC 4552) ([2]; strain GC 4552): 64 µg/mL (≈ 43.1 µM)
- MIC Enterococcus faecalis (GC 4553) ([2]; strain GC 4553): 32 µg/mL (≈ 21.5 µM)
- MIC Enterococcus faecalis (GC 4554) ([2]; strain GC 4554): 64 µg/mL (≈ 43.1 µM)
- MIC Enterococcus faecium (GC 4556) ([2]; strain GC 4556): 64 µg/mL (≈ 43.1 µM)
- MIC Enterococcus faecium (GC 4557) ([2]; strain GC 4557): 16 µg/mL (≈ 10.8 µM)
- MIC Enterococcus avium (GC 4558) ([2]; strain GC 4558): 32 µg/mL (≈ 21.5 µM)
- MIC Enterococcus faecalis (GC 6189) ([2]; strain GC 6189): 64 µg/mL (≈ 43.1 µM)
- MIC Escherichia coli (ATCC 25922) ([3]; strain ATCC 25922): >64 µg/mL
- MIC Escherichia coli (GC 4559) ([3]; strain GC 4559): >64 µg/mL
- MIC Escherichia coli (GC 4560) ([3]; strain GC 4560): 8 µg/mL (≈ 5.38 µM)
- MIC Coagulase Negative Staphylococcus (GC 4547) [4]: 32 µg/mL (≈ 21.5 µM)
- MIC Coagulase Negative Staphylococcus (GC 4548) [4]: 32 µg/mL (≈ 21.5 µM)
- MIC Coagulase Negative Staphylococcus (GC 4549) [4]: 32 µg/mL (≈ 21.5 µM)
- MIC Coagulase Negative Staphylococcus (GC 4551) [4]: 32 µg/mL (≈ 21.5 µM)
- MIC Coagulase Negative Staphylococcus (GC 6257) [4]: 8 µg/mL (≈ 5.38 µM)
- MIC Staphylococcus aureus (ATCC 29213) [4]: 32 µg/mL (≈ 21.5 µM)
- MIC Staphylococcus aureus (GC 1131) [4]: 32 µg/mL (≈ 21.5 µM)
- MIC Staphylococcus aureus (GC 3051) [4]: 32 µg/mL (≈ 21.5 µM)
- MIC Staphylococcus aureus (GC 3053) [4]: 64 µg/mL (≈ 43.1 µM)
- MIC Staphylococcus aureus (GC 4541) [4]: 32 µg/mL (≈ 21.5 µM)
- MIC Staphylococcus aureus (GC 4542) [4]: 32 µg/mL (≈ 21.5 µM)
- MIC Staphylococcus aureus (GC 4544) [4]: 32 µg/mL (≈ 21.5 µM)
- MIC Staphylococcus aureus (GC 4545) [4]: 32 µg/mL (≈ 21.5 µM)
- MIC Staphylococcus aureus SMITH (GC 4543) [4]: 32 µg/mL (≈ 21.5 µM)
- MIC Staphylococcus haemolyticus (GC 4546) [4]: 32 µg/mL (≈ 21.5 µM)
- MIC Staphylococcus aureus-SMITH (GC 4543) ([4]; strain SMITH GC 4543): 32 µg/mL (≈ 21.5 µM)
- median effective dose (ED50), Staphylococcus aureus-SMITH (GC 4543) [5]: >8

From patent US8247211B2, “Glycopeptide antibiotics” (American Cyanamid Company, priority 2001, dated 2012)
